Measurements: publication PMC3579193, “Elucidation of relaxin-3 binding interactions in the extracellular loops of RXFP3” (Frontiers in Endocrinology, 2013)
Numbering of substitutions follows the chain as printed. pIC50: −log10 of the molar value. Entries after “also recorded” stand apart in the source; their conditions may differ.

Assays:
[1] = target: T1, HA-RXFP3 E55A/D58A (Homo sapiens, UniProt Q9NSD7, D58A/E55A); test: Competition binding with Eu-H3/I5, HA-RXFP3 E55A/D58A
T1 construct: expressed in transfected cells; host or cells: HEK-293T
T1 sequence (Q9NSD7 2-469 E55A/D58A limits assumed): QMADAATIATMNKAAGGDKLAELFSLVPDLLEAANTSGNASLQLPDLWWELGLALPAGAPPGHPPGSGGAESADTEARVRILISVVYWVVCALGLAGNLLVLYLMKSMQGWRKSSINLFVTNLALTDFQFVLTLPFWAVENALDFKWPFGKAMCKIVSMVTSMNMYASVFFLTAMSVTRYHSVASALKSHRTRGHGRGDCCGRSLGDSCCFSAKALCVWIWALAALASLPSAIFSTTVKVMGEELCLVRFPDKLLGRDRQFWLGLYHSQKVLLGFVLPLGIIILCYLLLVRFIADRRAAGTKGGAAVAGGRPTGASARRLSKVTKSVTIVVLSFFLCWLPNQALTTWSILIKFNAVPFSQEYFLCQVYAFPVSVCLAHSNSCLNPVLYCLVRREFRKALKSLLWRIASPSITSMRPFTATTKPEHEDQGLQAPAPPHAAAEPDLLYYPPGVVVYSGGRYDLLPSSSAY
Experimental: (§1) PCR reactions and cloning were undertaken as previously described ([Scott et al., 2006], [2012]).
(§2) The same protocol was used to prepare DNA templates of all Glu/Asp to Ala mutants, entailing a single codon change except for D47A/E51A, E55A/D58A, and E141A/D145A which required a double codon change both to Ala. The forward and reverse primers for all mutants are listed in Table 1 and mutagenesis reactions on pcDNA3.1zeo (+)-HA-RXFP3 were performed as previously described ([Scott et al., 2006]; [Yan et al., 2008]). […]
(§3) HEK-293T cells were transfected in 96 well optiplates (Perkin Elmer) with plasmids encoding the constructs of interest and Eu-H3/I5 binding assays conducted as described previously ([Luo et al., 2010]; [Haugaard-Kedstrom et al., 2011]). […] Binding data are expressed as mean ± standard error of mean (SEM) of % specific binding of triplicate measurements pooled from at least three independent experiments. Data were analyzed using Graphpad PRISM (Graphpad Inc.) and a non-linear regression one-site binding model was used to plot curves and calculate pIC50 values. […] The HA epitope was detected using a purified mouse monoclonal anti-HA antibody [HA.11(16B12), Covance] and a Alexafluor488-labeled goat anti mouse IgG (Invitrogen) in cell surface expression assays that were performed in 24 well plates as previously described ([Yan et al., 2008]). […]

[2] = target: T2, HA-RXFP3 245A (Homo sapiens, UniProt Q9NSD7, E245A); test: Competition binding with Eu-H3/I5, HA-RXFP3 E245A
T2 construct: expressed in transfected cells; host or cells: HEK-293T
T2 sequence (Q9NSD7 2-469 E245A limits assumed): T1 sequence (Q9NSD7 2-469 E55A/D58A limits assumed) with A54E, A57D, E244A
Experimental: as §1, §2, §3

[3] = tested on: RXFP4; details: ref Liu et al., 2003a; cited from earlier work
From the text: Relaxin-3 is a member of the relaxin peptide family. Peptides from this family activate relaxin family peptide (RXFP) receptors, which are Type I or Class A G protein-coupled receptors (GPCRs). […] The rela ... || Based on the hypothesis that coevolution of relaxin-3 and RXFP3 occurred in vertebrates and that residues important for relaxin-3 binding and activation should therefore be conserved we performed multiple sequence alignments of all vertebrate RXFP3 sequences. […] Figure 1A highlights sequence alignments of representative mammalian species (human, chimpanzee, rat, mouse, platypus) and representative lower vertebrate species (Frog and Zebrafish) from this analysis compa ... || Based on the hypothesis that coevolution of relaxin-3 and RXFP3 occurred in vertebrates, and in the knowledge that the key relaxin-3 B-chain residues are conserved across all vertebrate species ([Wilkinson et al., 2005b]), we performed multiple sequence alignments of all vertebrate RXFP3 sequences to identify highly conserved residues in the ELs and NT domain that may be involved in relaxin-3 binding. […] We have focused on glutamic (E) and aspartic acid (D) residues ...

[4] = target: T3, HA-RXFP3 E77A (Homo sapiens, UniProt Q9NSD7, E77A); test: Competition binding with Eu-H3/I5, HA-RXFP3 E77A
T3 construct: expressed in transfected cells; host or cells: HEK-293T
T3 sequence (Q9NSD7 2-469 E77A limits assumed): T1 sequence (Q9NSD7 2-469 E55A/D58A limits assumed) with A54E, A57D, E76A
Experimental: as §1, §2, §3

## CC[C@H](C)[C@@H]1NC(=O)[C@H](Cc2ccccc2)NC(=O)[C@H](CCC(=O)O)NC(=O)[C@H](CCCNC(=N)N)NC(=O)CNC(=O)[C@@H](NC(=O)[C@H](CC(C)C)NC(=O)[C@H](CCCNC(=N)N)NC(=O)[C@@H](NC(=O)CNC(=O)[C@H](Cc2ccc(O)cc2)NC(=O)[C@@H]2CCCN2C(=O)[C@H](C)NC(=O)[C@H](C)NC(=O)[C@@H](N)CCCNC(=N)N)C(C)C)CSSC[C@@H]2NC(=O)[C@@H](NC(=O)[C@H](CO)NC(=O)[C@H](CO)NC(=O)[C@H](CO)NC(=O)[C@H](CC(C)C)NC(=O)CNC(=O)[C@H](C)NC(=O)[C@H](CC(C)C)NC(=O)[C@@H](NC(=O)[C@@H](N)CC(=O)O)C(C)C)CSSC[C@H](NC(=O)CNC(=O)[C@H](Cc3c[nH]c4ccccc34)NC(=O)[C@H](CCCCN)NC2=O)C(=O)N[C@@H](CO)C(=O)N[C@@H](CCCCN)C(=O)N[C@@H](CO)C(=O)N[C@@H](CCC(=O)O)C(=O)N[C@@H]([C@@H](C)CC)C(=O)N[C@@H](CO)C(=O)N[C@@H](CO)C(=O)N[C@@H](CC(C)C)C(=O)N[C@H](C(=O)O)CSSC[C@@H](C(=O)NCC(=O)NCC(=O)N[C@@H](CO)C(=O)N[C@@H](CCCNC(=N)N)C(=O)N[C@@H](Cc2c[nH]c3ccccc23)C(=O)O)NC(=O)[C@H]([C@@H](C)O)NC(=O)[C@H](Cc2ccccc2)NC(=O)[C@H]([C@@H](C)CC)NC(=O)[C@H](C(C)C)NC(=O)[C@H](C)NC(=O)[C@H](CCCNC(=N)N)NC1=O [H3 relaxin]
[1]
  pIC50: 8.03
[1]; competition binding, p > 0.05
  affinity compared with HA-RXFP3: not significantly different from HA-RXFP3
[2]
  pIC50: 7.35
[2]; competition binding, p > 0.05
  affinity compared with HA-RXFP3: slightly lower H3 relaxin binding affinity but this was not significantly different from HA-RXFP3; also recorded: no significant difference in H3 relaxin affinity; also recorded: did not show a significant drop in binding
[3]
  binding to and activation of RXFP4: binds to and activates human RXFP4
[4]
  pIC50: 7.50
[4]; competition binding, p > 0.05
  affinity compared with HA-RXFP3: slightly lower H3 relaxin binding affinity but this was not significantly different from HA-RXFP3; also recorded: no significant difference in H3 relaxin affinity; also recorded: did not show a significant drop in binding
